From PubChem BioAssay AID248 (DTP/NCI, 2004)
Inconclusive results and toxic doses are left out. No stated cut-off is given here; in the data, active means T/C of 150% or more; inactive means T/C below 125%.

Tested on: L1210 leukemia ip in BDF1 mice, survival T/C
Assay: NCI In Vivo Anticancer Drug Screen. Data for tumor model L1210 Leukemia (intraperitoneal) in B6D2F1 (BDF1) mice
Details: endpoint: mean survival time, higher = longer survival
Procedure, shortened: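 In this screen, tumor-bearing mice given compound are compared to those given vehicle, and their survival values are reported as a treated-to-control quotient.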

[1] = dose: 100.0 mg/kg/injection, schedule: Q01DX001 (ip), vehicle: saline
[2] = dose: 200.0 mg/kg/injection, schedule: Q01DX001 (ip), vehicle: saline
[3] = dose: 400.0 mg/kg/injection, schedule: Q01DX001 (ip), vehicle: saline

Measured: T/C

CS/C([S-])=N/[NH-].CS/C([S-])=N/[NH-].[Pd]
inactive: dose: 3.13 mg/kg/injection, schedule: Q01DX009 (ip), vehicle: saline with Tween-80 98 % of control | dose: 6.25 mg/kg/injection, schedule: Q01DX009 (ip), vehicle: saline with Tween-80 100 % of control | dose: 12.5 mg/kg/injection, schedule: Q01DX009 (ip), vehicle: saline with Tween-80 89 % of control

Cc1cc(SCC(=O)c2ccc(Br)cc2)cc(C)[o+]1
inactive: dose: 25.0 mg/kg/injection, schedule: Q01DX009 (ip), vehicle: saline 92 % of control | dose: 50.0 mg/kg/injection, schedule: Q01DX009 (ip), vehicle: saline 107 % of control | dose: 100.0 mg/kg/injection, schedule: Q01DX009 (ip), vehicle: saline 100 % of control | dose: 100.0 mg/kg/injection, schedule: Q04DX003 (ip), vehicle: saline 97 % of control | dose: 200.0 mg/kg/injection, schedule: Q04DX003 (ip), vehicle: saline 92 % of control

O/N=C\c1cc2c3c(c1)CCCN3CCC2
inactive: dose: 100.0 mg/kg/injection, schedule: Q01DX009 (ip), vehicle: Klucel (hydroxypropylcellulose) (HPC) 95 % of control | dose: 200.0 mg/kg/injection, schedule: Q01DX009 (ip), vehicle: Klucel (hydroxypropylcellulose) (HPC) 91 % of control | dose: 400.0 mg/kg/injection, schedule: Q01DX009 (ip), vehicle: Klucel (hydroxypropylcellulose) (HPC) 86 % of control

CCOC(Nc1ccc([N+](=O)[O-])cc1)C(=O)c1ccccc1 (stereo not given)
inactive: [1] 93 % of control | [2] 97 % of control | [3] 100 % of control

CCOC(=O)C1CCC(C(=O)OCC)N1c1ccc(C=O)cc1 (stereo not given)
inactive: dose: 100.0 mg/kg/injection, schedule: Q01DX009 (sc), vehicle: olive oil, sesame oil, peanut oil 104 % of control | dose: 100.0 mg/kg/injection, schedule: Q04DX003 (sc), vehicle: olive oil, sesame oil, peanut oil 112 % of control | dose: 200.0 mg/kg/injection, schedule: Q01DX009 (sc), vehicle: olive oil, sesame oil, peanut oil 96 % of control | dose: 200.0 mg/kg/injection, schedule: Q04DX003 (sc), vehicle: olive oil, sesame oil, peanut oil 112 % of control | dose: 400.0 mg/kg/injection, schedule: Q01DX009 (sc), vehicle: olive oil, sesame oil, peanut oil 110 % of control | dose: 400.0 mg/kg/injection, schedule: Q04DX003 (sc), vehicle: olive oil, sesame oil, peanut oil 102 % of control

O=C(c1ccccc1)C1C(=O)N(c2ccccc2)C(=O)N1c1ccccc1 (stereo not given)
inactive: [1] 90 % of control | [2] 96 % of control | [3] 96 % of control

CCc1c(C)nc(N)[nH]c1=O
inactive: dose: 100.0 mg/kg/injection, schedule: Q04DX003 (ip), vehicle: saline with Tween-80 106 % of control | dose: 200.0 mg/kg/injection, schedule: Q04DX003 (ip), vehicle: saline with Tween-80 106 % of control

NC(=O)C1C(c2ccccc2)C1c1ccccc1 (stereo not given)
inactive: dose: 100.0 mg/kg/injection, schedule: Q04DX002 (ip), vehicle: Klucel (hydroxypropylcellulose) (HPC) 97 % of control | dose: 200.0 mg/kg/injection, schedule: Q04DX002 (ip), vehicle: Klucel (hydroxypropylcellulose) (HPC) 102 % of control | dose: 400.0 mg/kg/injection, schedule: Q04DX002 (ip), vehicle: Klucel (hydroxypropylcellulose) (HPC) 94 % of control

CCCCCCCCCCCCCCCCCCCCC1CC(=O)OC1=O (stereo not given)
inactive: dose: 100.0 mg/kg/injection, schedule: Q04DX003 (ip), vehicle: Klucel (hydroxypropylcellulose) (HPC) 91 % of control | dose: 200.0 mg/kg/injection, schedule: Q04DX003 (ip), vehicle: Klucel (hydroxypropylcellulose) (HPC) 92 % of control | dose: 400.0 mg/kg/injection, schedule: Q04DX003 (ip), vehicle: Klucel (hydroxypropylcellulose) (HPC) 91 % of control

C=C1CCOC2(C(O)C(C)(O)CO)NC(=O)C1(O)NC2=O (stereo not given)
inactive: dose: 100.0 mg/kg/injection, schedule: Q04DX002 (ip), vehicle: saline 96 % of control | dose: 200.0 mg/kg/injection, schedule: Q04DX002 (ip), vehicle: saline 107 % of control | dose: 400.0 mg/kg/injection, schedule: Q04DX002 (ip), vehicle: saline 104 % of control

CCCCCc1c(C)nc([N+](=O)[O-])nc1N
inactive: dose: 3.13 mg/kg/injection, schedule: Q01DX001 (ip), vehicle: saline with Tween-80 97 % of control | dose: 6.25 mg/kg/injection, schedule: Q01DX001 (ip), vehicle: saline with Tween-80 101 % of control | dose: 12.5 mg/kg/injection, schedule: Q01DX001 (ip), vehicle: saline with Tween-80 96 % of control

O=[N+]([O-])c1ccc(N=C(Cl)c2cc(N3CCOCC3)ccn2)cc1
inactive: [1] 94 % of control | [2] 94 % of control | [3] 95 % of control
